The source of these data is patent US20230143604A1, “QW DOSING OF GIP RECEPTOR AGONIST PEPTIDE COMPOUNDS AND USES THEREOF” (TAKEDA PHARMACEUTICAL COMPANY LIMITED, priority 2020, published 2023).

Starred links: 1 amine or outer side, 2 acyl side, 3 side chain; linkers in the order of their positions; H or OH if unused. Non-standard residues stand in square brackets, D forms with d. Residues, ends and D or L forms follow the SMILES beside them. Groups on a side chain read outwards from the residue. *: point of attachment. C18 diacid = O=C(O)CCCCCCCCCCCCCCCCC(=O)*; C17 diacid = O=C(O)CCCCCCCCCCCCCCCC(=O)*; γGlu = O=C(O)[C@H](CCC(=O)[*:2])N[*:1]; NMeY = CN[C@@H](Cc1ccc(O)cc1)C(=O)O; AEEA = NCCOCCOCC(=O)O; Aib = CC(C)(N)C(=O)O

This data set is described as follows: physchem. In outline:
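3 mg of peptide treated with 100 μL portions of 200 mM phosphate buffer pH 7.4, sonicating/vortexing up to 1 min, with further buffer added until fully dissolved. Solubility then quantified by HPLC.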

The mark [1] stands for this setting: pH 7.4, aqueous buffer, pH 7.4 Phosphate Buffer - Solubility, 200 mM Phosphate buffer pH 7.4.
Setting [2] is: pH 7.4, solubility in phosphate buffer at pH 7.4, 200 mM phosphate buffer pH 7.4.

One may read the solubility as the dissolved amount per volume that the medium holds. In the case of `CC[C@H](C)[C@H](NC(=O)[C@H](Cc1ccccc1)NC(=O)[C@@H](NC(=O)CNC(=O)[C@H](CCC(=O)O)NC(=O)C(C)(C)NC(=O)[C@H](Cc1ccc(O)cc1)NC)[C@@H](C)O)C(=O)N[C@@H](CO)C(=O)N[C@@H](CC(=O)O)C(=O)N[C@@H](Cc1ccc(O)cc1)C(=O)N[C@@H](CO)C(=O)N[C@H](C(=O)NC(C)(C)C(=O)N[C@@H](CC(C)C)C(=O)N[C@@H](CC(=O)O)C(=O)N[C@@H](CCCNC(=N)N)C(=O)NC(C)(C)C(=O)N[C@@H](C)C(=O)N[C@@H](CCC(N)=O)C(=O)NC(C)(C)C(=O)N[C@@H](CCCCNC(=O)COCCOCCNC(=O)COCCOCCNC(=O)CC[C@H](NC(=O)CC[C@H](NC(=O)CCCCCCCCCCCCCCCCC(=O)O)C(=O)O)C(=O)O)C(=O)N[C@@H](Cc1ccccc1)C(=O)N[C@H](C(=O)N[C@@H](CC(N)=O)C(=O)N[C@@H](Cc1c[nH]c2ccccc12)C(=O)N[C@@H](CC(C)C)C(=O)N[C@@H](CC(C)C)C(=O)N[C@@H](C)C(=O)N[C@@H](CCC(N)=O)C(=O)N[C@@H](CCCCN)C(=O)NCC(=O)O)C(C)C)[C@@H](C)CC` [Compound 66] (H-[NMeY][Aib]EGTFISDYSI[Aib]LDR[Aib]AQ[Aib]K([AEEA-AEEA-γGlu-γGlu-C18 diacid])FVNWLLAQKG-OH), the solubility is ≥ 15 mg/mL (pH 7.4) and ≥ 30 mg/mL (pH 7.4, aqueous buffer).

Take `CC[C@H](C)[C@H](NC(=O)[C@H](Cc1ccccc1)NC(=O)[C@@H](NC(=O)CNC(=O)[C@H](CCC(=O)O)NC(=O)C(C)(C)NC(=O)[C@H](Cc1ccc(O)cc1)NC)[C@@H](C)O)C(=O)N[C@@H](CO)C(=O)N[C@@H](CC(=O)O)C(=O)N[C@@H](Cc1ccc(O)cc1)C(=O)N[C@@H](CO)C(=O)N[C@H](C(=O)NC(C)(C)C(=O)N[C@@H](CCCCNC(=O)COCCOCCNC(=O)COCCOCCNC(=O)CC[C@H](NC(=O)CC[C@H](NC(=O)CCCCCCCCCCCCCCCC(=O)O)C(=O)O)C(=O)O)C(=O)N[C@@H](CC(=O)O)C(=O)N[C@@H](CCCNC(=N)N)C(=O)NC(C)(C)C(=O)N[C@@H](C)C(=O)N[C@@H](CCC(N)=O)C(=O)NC(C)(C)C(=O)N[C@@H](CC(N)=O)C(=O)N[C@@H](Cc1ccccc1)C(=O)N[C@H](C(=O)N[C@@H](CC(N)=O)C(=O)N[C@@H](Cc1c[nH]c2ccccc12)C(=O)N[C@@H](CC(C)C)C(=O)N[C@@H](CC(C)C)C(=O)N[C@@H](C)C(=O)N[C@@H](CCC(N)=O)C(=O)N[C@@H](CCCNC(=N)N)C(=O)N1CCC[C@H]1C(=O)N[C@@H](CO)C(=O)N[C@@H](CO)C(=O)NCC(=O)N[C@@H](C)C(=O)N1CCC[C@H]1C(=O)N1CCC[C@H]1C(=O)N1CCC[C@H]1C(=O)N[C@@H](CO)C(N)=O)C(C)C)[C@@H](C)CC` [Compound 14] (H-[NMeY][Aib]EGTFISDYSI[Aib]K([AEEA-AEEA-γGlu-γGlu-C17 diacid])DR[Aib]AQ[Aib]NFVNWLLAQRPSSGAPPPS-NH2): the solubility under setting [1] is ≥ 30 mg/mL and the solubility under setting [2] is ≥ 15 mg/mL.

In the case of `CC[C@H](C)[C@H](NC(=O)[C@H](CO)NC(=O)[C@H](Cc1ccc(O)cc1)NC(=O)[C@H](CC(=O)O)NC(=O)[C@H](CO)NC(=O)[C@@H](NC(=O)[C@H](Cc1ccccc1)NC(=O)[C@@H](NC(=O)CNC(=O)[C@H](CCC(=O)O)NC(=O)C(C)(C)NC(=O)[C@H](Cc1ccc(O)cc1)NC)[C@@H](C)O)[C@@H](C)CC)C(=O)N[C@@H](C)C(=O)N[C@@H](CC(C)C)C(=O)N[C@@H](CC(=O)O)C(=O)N[C@@H](CCCNC(=N)N)C(=O)NC(C)(C)C(=O)N[C@@H](C)C(=O)N[C@@H](CCC(N)=O)C(=O)NC(C)(C)C(=O)N[C@@H](CCCCNC(=O)COCCOCCNC(=O)COCCOCCNC(=O)CC[C@H](NC(=O)CC[C@H](NC(=O)CCCCCCCCCCCCCCCCC(=O)O)C(=O)O)C(=O)O)C(=O)N[C@@H](Cc1ccccc1)C(=O)N[C@H](C(=O)N[C@@H](CC(N)=O)C(=O)N[C@@H](Cc1c[nH]c2ccccc12)C(=O)N[C@@H](CC(C)C)C(=O)N[C@@H](CC(C)C)C(=O)N[C@@H](C)C(=O)N[C@@H](CCC(N)=O)C(=O)N[C@@H](CCCNC(=N)N)C(=O)N1CCC[C@H]1C(=O)N[C@@H](CO)C(=O)N[C@@H](CO)C(=O)NCC(=O)N[C@@H](C)C(=O)N1CCC[C@H]1C(=O)N1CCC[C@H]1C(=O)N1CCC[C@H]1C(=O)N[C@@H](CO)C(N)=O)C(C)C` [Compound 35] (H-[NMeY][Aib]EGTFISDYSIALDR[Aib]AQ[Aib]K([AEEA-AEEA-γGlu-γGlu-C18 diacid])FVNWLLAQRPSSGAPPPS-NH2), the solubility is ≥ 30 mg/mL under setting [1] and ≥ 15 mg/mL under setting [2].

`CC[C@H](C)[C@H](NC(=O)[C@H](Cc1ccccc1)NC(=O)[C@@H](NC(=O)CNC(=O)[C@H](CCC(=O)O)NC(=O)C(C)(C)NC(=O)[C@H](Cc1ccc(O)cc1)NC)[C@@H](C)O)C(=O)N[C@@H](CO)C(=O)N[C@@H](CC(=O)O)C(=O)N[C@@H](Cc1ccc(O)cc1)C(=O)N[C@@H](CO)C(=O)N[C@H](C(=O)NC(C)(C)C(=O)N[C@@H](CCCCNC(=O)COCCOCCNC(=O)COCCOCCNC(=O)CC[C@H](NC(=O)CCCCCCCCCCCCCCCC(=O)O)C(=O)O)C(=O)N[C@@H](CC(=O)O)C(=O)N[C@@H](CCCNC(=N)N)C(=O)NC(C)(C)C(=O)N[C@@H](C)C(=O)N[C@@H](CCC(N)=O)C(=O)NC(C)(C)C(=O)N[C@@H](CC(N)=O)C(=O)N[C@@H](Cc1ccccc1)C(=O)N[C@H](C(=O)N[C@@H](CC(N)=O)C(=O)N[C@@H](Cc1c[nH]c2ccccc12)C(=O)N[C@@H](CC(C)C)C(=O)N[C@@H](CC(C)C)C(=O)N[C@@H](C)C(=O)N[C@@H](CCC(N)=O)C(=O)N[C@@H](CCCNC(=N)N)C(=O)N1CCC[C@H]1C(=O)N[C@@H](CO)C(=O)N[C@@H](CO)C(=O)NCC(=O)N[C@@H](C)C(=O)N1CCC[C@H]1C(=O)N1CCC[C@H]1C(=O)N1CCC[C@H]1C(=O)N[C@@H](CO)C(N)=O)C(C)C)[C@@H](C)CC` [Compound 263] (H-[NMeY][Aib]EGTFISDYSI[Aib]K([AEEA-AEEA-γGlu-C17 diacid])DR[Aib]AQ[Aib]NFVNWLLAQRPSSGAPPPS-NH2): the solubility under setting [1] was ≥ 7.5 mg/mL.

Turning to `CC[C@H](C)[C@H](NC(=O)[C@H](Cc1ccccc1)NC(=O)[C@@H](NC(=O)CNC(=O)[C@H](CCC(=O)O)NC(=O)C(C)(C)NC(=O)[C@H](Cc1ccc(O)cc1)NC)[C@@H](C)O)C(=O)N[C@@H](CO)C(=O)N[C@@H](CC(=O)O)C(=O)N[C@@H](Cc1ccc(O)cc1)C(=O)N[C@@H](CO)C(=O)N[C@H](C(=O)NC(C)(C)C(=O)N[C@@H](CC(C)C)C(=O)N[C@@H](CC(=O)O)C(=O)N[C@@H](CCCNC(=N)N)C(=O)NC(C)(C)C(=O)N[C@@H](C)C(=O)N[C@@H](CCC(N)=O)C(=O)NC(C)(C)C(=O)N[C@@H](CC(N)=O)C(=O)N[C@@H](Cc1ccccc1)C(=O)N[C@H](C(=O)N[C@@H](CC(N)=O)C(=O)N[C@@H](Cc1c[nH]c2ccccc12)C(=O)N[C@@H](CC(C)C)C(=O)N[C@@H](CC(C)C)C(=O)N[C@@H](C)C(=O)N[C@@H](CCC(N)=O)C(=O)N[C@@H](CCCCNC(=O)COCCOCCNC(=O)COCCOCCNC(=O)CC[C@H](NC(=O)CC[C@H](NC(=O)CCCCCCCCCCCCCCCC(=O)O)C(=O)O)C(=O)O)C(=O)NCC(=O)NCC(=O)NCC(=O)NCC(=O)N[C@@H](CO)C(N)=O)C(C)C)[C@@H](C)CC` [Compound 33] (H-[NMeY][Aib]EGTFISDYSI[Aib]LDR[Aib]AQ[Aib]NFVNWLLAQK([AEEA-AEEA-γGlu-γGlu-C17 diacid])GGGGS-NH2), the solubility was ≥ 15 mg/mL (pH 7.4) and ≥ 30 mg/mL (pH 7.4, aqueous buffer).
